Reference: patent US20250177467A1, “COMPOSITIONS AND METHODS FOR MODULATING NUCLEAR FACTOR OF ACTIVATED T-CELLS (NFAT) ACTIVITY OF T CELLS” (Yale University, priority 2022, published 2025)

Columns and labels:
[1] = test system: NFAT mediated transcriptional activity of Jurkat cells; assay: NFAT luciferase reporter in Jurkat(-PD1) cells co-cultured with wild type Raji or Raji-PD-L1 cells without or with SEE; type: cell-based; conditions: for modulation effect on basal NFAT activity: absence of SEE, wild type Raji or PD-L1 over-expressed Raji cells; for inhibition on NFAT activity of Jurkat cells: presence of SEE; for modulation of basal NFAT activity: S compounds up to 40 uM; for inhibition of SEE triggered NFAT activity: at 20 to 40 uM, SEE 10 ng/ml
[2] = test system: Lck, Fyn, Zap70, LAT and Pyk2; assay: Western blot of protein phosphorylation of T cell receptor downstream cascades in Jurkat cells; type: cell-based; conditions: 45 min
Procedure: FIGS. 8A-8D are western blot analyses showing effects of YIV-906 (FIG. 8A), single herbs (FIG. 8A), the fractions of YIV-906 (FIG. 8B), P (FIG. 8C), and S (FIG. 8D) on protein phosphorylation of T cell receptor signaling cascades including, Lck, Fyn, Zap70, LAT and Pyk2. […] All eluted fractions were dried and reconstituted with water to equivalent concentration at 100 mg/ml. Jurkat cells were treated with YIV-906 (FIG. 8A), single herbs (FIG. 8A), the fractions of YIV-906 (FIG. 8B), P (FIG. 8C), and S (FIG. 8D) at equivalent dose 320 ug/ml for 45 min. Western blot analysis was used to determine the protein phosphorylation using specific antibodies. GAPDH was used to normalize the protein loading.
FIGS. 9A-9B show chemical identification of fractions of P (FIG. 9A) and S (FIG. 9B) after C18 column fractionation and their impacts on protein phosphorylation for Lck, Zap70, Lat, Fyn/Src, Pyk2. Equivalent concentration, 10 mg/ml, was used for LC-MS analysis. Equivalent concentration, 320 ug/ml for 45 min, was used for treating Jurkat cells for western blotting analysis. Identified chemicals (putative), based on their mass and mass of their fragments, were listed under each fraction. Non-identified chemical was not listed in this figure. Fraction could induce phosphorylation of specific protein was indicted as red upward arrow.
FIG. 10 show effects of S and P compounds on protein phosphorylation of T cell receptor signaling cascades including, Lck, Fyn, Zap70, LAT and Pyk2. Jurkat cells were treated with S and P compounds for 45 min. Western blot analysis was used to determine the protein phosphorylation using specific antibodies.
Jurkat-PD1 cells 10^6/ml were placed in 24 well plate treated with YIV-906 or its components herbs for 45 minutes. After spinning down the cells at 1000 g centrifugation for 10 min, red blood cells were lysed with 1 ml BD pharm lyse on ice. Cells were collected at 1000 g centrifugation for 10 min. 2×10^6 cells were used for each staining sample. The cells were prepared with 2X protein loading buffer (Tris pH 6.8 1M, SDS 1%, glycerol, B-mercaptoethanol, bromophenol blue, distilled water). The samples were then heated to 95° C. for 5 minutes to denature the proteins prior to western blot. SDS polyacrylamide gel electrophoresis (10% Mini-Protean TGX™ Precast Protein Gels, BioRad) was used to separate proteins according to their electrophoretic mobility. The protein extractions were deposited in the wells of the gel, 10 μL per well. The migration was performed in a 1X running buffer (Tris/Glycine/SDS) at 180 V for 50 minutes. The transfer of the proteins was performed on a PVDF membrane in the transfer buffer (Tris-CAPS AX, methanol, SDS 10%, distilled water) at 75 V for 1 hour. The non-specific binding sites on the PVDF membrane were blocked with a blocking solution (3% milk powder and 1X TBS-T) for 30 minutes. Then, the PVDF membrane was incubated with the primary antibody against the proteins of interest overnight at 4° C. The information of primary antibodies is as follows: P-Lck-Y394 (Biolegend, #933101), P-Zap70-Y319 (Cell signaling, #2717), P-LAT-Y191 (Cell signaling, #3584) P-SRC (Fyn) Y416 (Cell, signaling, #6943), P-Pyk2-Y402 (Cell signaling, 3291), GAPDH (Cell Signaling, #5174). […] Image-J was used to quantify the total intensity of immunoreactive bands. […]

[3] = test system: NFAT mediated transcriptional activity of Jurkat-PD1 TCRαβ knockout cells; assay: NFAT luciferase reporter in TCRαβ knockout Jurkat-PD1 cells; type: cell-based
SHP2 = target: T1, SHP2 (Homo sapiens, UniProt Q06124); assay: SHP2 activity, p-Nitrophenyl Phosphate (pNPP) colorimetric assay; type: biochemical; conditions: 40 uM
T1 sequence (Q06124 1-593): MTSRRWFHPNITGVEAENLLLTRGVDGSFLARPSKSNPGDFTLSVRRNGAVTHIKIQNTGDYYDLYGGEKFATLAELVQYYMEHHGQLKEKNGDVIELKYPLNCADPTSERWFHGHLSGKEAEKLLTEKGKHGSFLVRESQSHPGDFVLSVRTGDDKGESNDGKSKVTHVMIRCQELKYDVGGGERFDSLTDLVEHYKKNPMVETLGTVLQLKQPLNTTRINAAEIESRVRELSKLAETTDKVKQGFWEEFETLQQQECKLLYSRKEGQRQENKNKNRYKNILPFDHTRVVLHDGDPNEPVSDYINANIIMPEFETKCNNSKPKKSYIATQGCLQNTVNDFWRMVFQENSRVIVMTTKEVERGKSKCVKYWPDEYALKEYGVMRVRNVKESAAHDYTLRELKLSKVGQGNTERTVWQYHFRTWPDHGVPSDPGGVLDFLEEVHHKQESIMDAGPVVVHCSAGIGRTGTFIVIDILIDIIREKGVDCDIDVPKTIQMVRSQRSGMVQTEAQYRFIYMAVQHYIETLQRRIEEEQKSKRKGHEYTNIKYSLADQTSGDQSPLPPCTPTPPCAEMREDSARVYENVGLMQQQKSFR

[4] = target: CD19 naturally expressed on the cell surface of Raji cells (UniProt P15391); assay: cell-based or functional assay
[5] = Jurkat-PD1 with wild type Raji or PD-L1 over-expressed Raji cells, without SEE

Chain of CD19 naturally expressed on the cell surface of Raji cells (P15391 20-556 limits assumed): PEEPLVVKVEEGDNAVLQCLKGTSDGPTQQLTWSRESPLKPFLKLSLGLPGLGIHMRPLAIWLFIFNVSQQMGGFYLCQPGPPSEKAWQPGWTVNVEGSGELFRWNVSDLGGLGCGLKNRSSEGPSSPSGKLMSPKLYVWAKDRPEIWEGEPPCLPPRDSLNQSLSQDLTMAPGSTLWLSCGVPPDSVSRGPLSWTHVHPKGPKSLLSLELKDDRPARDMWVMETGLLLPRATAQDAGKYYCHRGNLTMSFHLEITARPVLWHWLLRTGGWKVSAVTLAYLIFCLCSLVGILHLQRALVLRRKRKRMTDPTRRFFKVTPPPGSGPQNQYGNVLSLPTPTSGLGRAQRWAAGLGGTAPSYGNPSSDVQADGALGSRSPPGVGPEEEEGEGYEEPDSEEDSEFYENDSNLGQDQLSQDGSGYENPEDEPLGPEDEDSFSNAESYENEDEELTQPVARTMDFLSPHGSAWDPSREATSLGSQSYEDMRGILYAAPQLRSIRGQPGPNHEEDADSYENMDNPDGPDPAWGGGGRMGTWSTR

**Q.** Which “modulation effect on basal NFAT activity” value ([1]; 40 uM) does the source give for `O=C1C[C@@H](c2ccc(O)cc2)Oc2cc(O)ccc21` [liquiritigenin] here?
**A.** some modulation effect

**Q.** How did the “modulation effect on basal NFAT activity” value ([1]; 10 uM) turn out when `O=C(/C=C/c1ccc(O)cc1)c1ccc(O)cc1O` [Isoliquiritigenin] was run?
**A.** some modulation effect

**Q.** And the “inhibition on NFAT activity of Jurkat cells” value ([1]; 40 uM)?
**A.** showed inhibition on NFAT activity

**Q.** How did the “inducing P-Zap70-Y319 and P-Pyk2-Y402” value [2] turn out when `C[C@]12C[C@@H](O)[C@@H]3C[C@@]1(O[C@@H]1O[C@H](CO)[C@@H](O)[C@H](O)[C@H]1O)[C@@]3(COC(=O)c1ccccc1)C(=O)O2` [Albiforin] was run?
**A.** some effect

**Q.** With `COc1c(O)cc2oc(-c3ccccc3)cc(=O)c2c1O` [oroxylin A] as the compound, how does the “modulation of basal NFAT activity” value [1, 5] read?
**A.** could modulate the basal NFAT activity

**Q.** What about the “inhibition of SEE triggered NFAT activity” value [1] of the same compound?
**A.** could inhibit SEE triggered NFAT activity

**Q.** And the “impact on NFAT activity, Jurkat-PD1 versus Jurkat-PD1 TCRαβ KO cells” value [3]?
**A.** very similar impact on NFAT activity

**Q.** And the “inhibitory effect on SHP2, S compounds” value (SHP2)?
**A.** showed inhibitory effect on SHP2

**Q.** How did the “modulation of basal NFAT activity” value [1, 5] turn out when `O=c1cc(-c2ccccc2)oc2cc(O)c(O)c(O)c12` [baicalein] was run?
**A.** could modulate the basal NFAT activity

**Q.** What about the “inhibition of SEE triggered NFAT activity” value [1] of the same compound?
**A.** could inhibit SEE triggered NFAT activity

**Q.** What about the “impact on NFAT activity, Jurkat-PD1 versus Jurkat-PD1 TCRαβ KO cells” value [3] of the same compound?
**A.** very similar impact on NFAT activity

**Q.** What about the “induction of protein phosphorylation of all examined proteins (Lck, Zap70, LAT, Fyn, Pyk2)” value ([2]; 40 uM) of the same compound?
**A.** could strongly induce protein phosphorylation of all examined proteins

**Q.** What about the “inhibitory effect on SHP2, S compounds” value (SHP2) of the same compound?
**A.** showed inhibitory effect on SHP2

**Q.** For `C[C@@]12C[C@@]3(O)O[C@@H](O1)[C@]1(COC(=O)c4ccccc4)[C@H]3C[C@@]12O[C@@H]1O[C@H](CO)[C@@H](O)[C@H](O)[C@H]1O` [Paeoniforin], which “inducing P-Zap70-Y319 and P-Pyk2-Y402” value [2] is on record?
**A.** some effect

**Q.** Which “inhibitory effect on SHP2, S compounds” value (SHP2) does the source give for `COc1c(O[C@@H]2O[C@H](C(=O)O)[C@@H](O)[C@H](O)[C@H]2O)cc(O)c2c(=O)cc(-c3ccccc3)oc12` [wogonoside] here?
**A.** showed inhibitory effect on SHP2

**Q.** With `COc1ccc2c(c1O)-c1c(O)c(OC)cc3c1[C@H](C2)[N+](C)(C)CC3` [Magnoflorine] as the compound, how does the “inhibition on NFAT activity of Jurkat cells” value ([1]; Z compound up to 40 uM) read?
**A.** showed inhibition on NFAT activity

**Q.** Which results are given for `C=CC(C)(C)c1cc(/C=C/C(=O)c2ccc(O)cc2)c(OC)cc1O` [licochalcone A]?
**A.** inhibition on NFAT activity of Jurkat cells ([1]; 40 uM): showed inhibition on NFAT activity; modulation effect on basal NFAT activity ([1]; 10-20 uM): some modulation effect

**Q.** With `O=C1C[C@@H](c2ccc(O[C@@H]3O[C@H](CO)[C@@H](O)[C@H](O)[C@H]3O)cc2)Oc2cc(O)ccc21` [liquiritin] as the compound, how does the “modulation effect on basal NFAT activity” value ([1]; 20 uM) read?
**A.** some modulation effect

**Q.** Which NFAT activity of Jurkat-PD1 CAR-CD19 cells co-cultured with Raji (NFAT luciferase reporter) [4] does the source give for “chimeric antigen receptor (CAR-CD19-CD3zeta) on Jurkat-PD1 NFAT-luc cells” here?
**A.** 40 fold

**Q.** With `COc1c(CC=C(C)C)c(O)cc2oc(=O)c(-c3ccc(O)cc3O)cc12` [glycycoumarin] as the compound, how does the “modulation effect on basal NFAT activity” value ([1]; 10 uM) read?
**A.** some modulation effect

**Q.** What does the source list for `COc1c(O[C@@H]2O[C@H](C(=O)O)[C@@H](O)[C@H](O)[C@H]2O)cc2oc(-c3ccccc3)cc(=O)c2c1O` [oroxylin A 7-O-beta-D-glucuronide]?
**A.** modulation of basal NFAT activity [1, 5]: could modulate the basal NFAT activity; dose required to achieve 2-fold activity of NFAT ([1]; basal, without SEE, Jurkat-PD1 with wild type Raji or PD-L1 over-expressed Raji cells): 40 µM; impact on NFAT activity, Jurkat-PD1 versus Jurkat-PD1 TCRαβ KO cells [3]: very similar impact on NFAT activity; induction effect on P-Zap70-Y319, P-SRC (Fyn)-Y416 and P-Pyk2-Y402 ([2]; 40 uM): some induction effect; inhibitory effect on SHP2, S compounds (SHP2): showed inhibitory effect on SHP2

**Q.** For `O=C(O)[C@H]1O[C@@H](Oc2cc3oc(-c4ccccc4)cc(=O)c3c(O)c2O)[C@H](O)[C@@H](O)[C@@H]1O` [Baicalin], which “induction effect on P-Zap70-Y319, P-SRC (Fyn)-Y416 and P-Pyk2-Y402” value ([2]; 40 uM) is on record?
**A.** some induction effect

**Q.** And the “inhibitory effect on SHP2, S compounds” value (SHP2)?
**A.** showed inhibitory effect on SHP2

**Q.** For `CC1(C)[C@@H](O[C@H]2O[C@H](C(=O)O)[C@@H](O)[C@H](O)[C@H]2O[C@@H]2O[C@H](C(=O)O)[C@@H](O)[C@H](O)[C@H]2O)CC[C@]2(C)[C@H]3C(=O)C=C4[C@@H]5C[C@@](C)(C(=O)O)CC[C@]5(C)CC[C@@]4(C)[C@]3(C)CC[C@@H]12` [Glycyrrhizic acid], which “inhibitory effect on SHP2, G compounds” value (SHP2) is on record?
**A.** relatively higher inhibitory effects on SHP2 than other G compounds

**Q.** How did the “rescue of depressed NFAT activity (due to the interaction of PD1 and PD-L1) in Jurkat-PD1 cells” value ([1]; Raji-PD-L1 cells, SEE 10 ng/ml or 30 ng/ml, YIV-906 160 ug/ml, nivolumab biosimilar 18 ug/ml) turn out when “Anti-PD1: antibody produced from Nivolumab clone; InVivoSIM anti-human PD-1 (Nivolumab Biosimilar)” was run?
**A.** rescued the depressed NFAT activity

**Q.** How did the “inhibitory effect on SHP2, G compounds” value (SHP2) turn out when `CC1(C)[C@@H](O)CC[C@]2(C)[C@H]3C(=O)C=C4[C@@H]5C[C@@](C)(C(=O)O)CC[C@]5(C)CC[C@@]4(C)[C@]3(C)CC[C@@H]12` [glycyrrhetinic acid] was run?
**A.** relatively higher inhibitory effects on SHP2 than other G compounds
